Tested on: GSDMD cleavage in Huh7 hepatocytes
Experiment: LPS-induced pyroptosis (GSDMD cleavage) in Huh7 hepatocytes pre-treated with tunicamycin and/or very low-dose LPS
Assay type: cell-based, Human
Settings: tunicamycin and/or LPS 1 μg/ml for 24 hours, then LPS 30 μg/ml
Experimental: FIG. 13—LPS-dependent pyroptosis in hepatocytes and priming by ER stress.
All measurements were performed in triplicate.
In addition to hepatocyte ER stress, increased levels of circulating endotoxin are detected in advanced liver disease. Therefore, to determine the importance of hepatocyte ER stress and low-level endotoxin exposure as mediators of upregulation of the caspase-4/11 pathway, Huh7 hepatocytes were pre-treated with the ER stress inducer, tunicamycin and/or very low-dose LPS (1 μg/ml) for 24 hours, prior to the LPS ‘hit’ (30 μg/ml) (FIG. 13). […] Importantly, in these experiments hepatocyte pyroptosis was independent of the TLR4 pathway, as GSDMD cleavage was not inhibited by the TLR4 antagonist TAK-242. Caspase-11 deficient mice are protected from hepatic and extra-hepatic organ injury in ACLF Casp11^−/− mice are deficient in the caspase-11 pathway, but the caspase-1 pathway remains intact. Casp11^−/− mice develop a similar level of advanced fibrosis/cirrhosis compared to wildtype (wt) after treatment with 20 doses of CCl4 (FIG. 14A).

Compound: CCOC(=O)C1=CCCC[C@H]1S(=O)(=O)Nc1ccc(F)cc1Cl [TAK-242]
- GSDMD cleavage (inhibition by TLR4 antagonist): not inhibited

Source: US11752196B2, “Treatment of pyroptosis” (priority 2018, dated 2023)
